Data on two compounds can be found in US8741579B2, “Compounds and methods for the modulation of beta-1 integrin function to mediate tissue repair” (priority 2007, dated 2014).

Where a SMILES comes first, the peptide text is derived from it. The star is where a group is joined. Cbz = O=C(OCc1ccccc1)*; CH2F = FC*

The subject of assay [1] is adult human lung fibroblasts (CCD-8Lu) overlayered with NCI-H441 cells. Put plainly: F-actin aggregates (phalloidin staining) in human lung co-culture under stretch. The assay is classed as cell-based. The note with it: stretch up to 6 hours; JB1a 1 μg/ml; ZVAD-fmk. Here is the method: (§1) Adult human lung fibroblasts (CCD-8Lu) were seeded onto collagen I coated BioFlex 6 well plates at 0.5×10^6/well. The following day, NCI-H441 were seeded on top of the fibroblasts at the same density. […] Cells were starved with media containing 0.1% FCS. The plates were subjected to stretching at 0-5%, 0-10% or 2-10% sinusoidal stretch at 1 Hz for 6 hours. Control plates on plastic or bioflex plates without stretch were also included. PPE was added at 0.06 or 0.3 U/ml alone or in combination with JB1a (1 μg/ml) and ZVAD-fmk at 10 or 20 μM. At the end of the 6 hour period, the media was aspirated and caspase 3 activity assayed using Caspase-Glo™ 3/7 (Promega) according to the manufacturers' instructions. Separate experiments were performed at up to 6 hours of stretching where the cells were fixed with 4% paraformaldehyde and stained using Alexa-fluor phalloidin and TO-PRO3 (Molecular Probes). Images were acquired using Zeiss Axioskope using a x63 water achroplan objective and analysed using LSM 5 Image software.

The test system is the same in assay [2]. Put plainly: Caspase 3/7 activity (Caspase-Glo 3/7) in human lung co-culture under cyclic stretch. The assay is classed as cell-based. The note with it: cyclic stretch 6 hours; JB1a 1 μg/ml; ZVAD-fmk 10 or 20 μM. Here is the method:
as §1

Assay [3] deals with human beta 1 integrin (Integrin beta-1 precursor, Fibronectin receptor subunit beta, Integrin VLA-4 subunit beta, CD29 antigen) (human) (UniProt P05556). Description: cell-based or functional assay.
Sequence of UniProt P05556 (P05556 21-798 T112H/S215T): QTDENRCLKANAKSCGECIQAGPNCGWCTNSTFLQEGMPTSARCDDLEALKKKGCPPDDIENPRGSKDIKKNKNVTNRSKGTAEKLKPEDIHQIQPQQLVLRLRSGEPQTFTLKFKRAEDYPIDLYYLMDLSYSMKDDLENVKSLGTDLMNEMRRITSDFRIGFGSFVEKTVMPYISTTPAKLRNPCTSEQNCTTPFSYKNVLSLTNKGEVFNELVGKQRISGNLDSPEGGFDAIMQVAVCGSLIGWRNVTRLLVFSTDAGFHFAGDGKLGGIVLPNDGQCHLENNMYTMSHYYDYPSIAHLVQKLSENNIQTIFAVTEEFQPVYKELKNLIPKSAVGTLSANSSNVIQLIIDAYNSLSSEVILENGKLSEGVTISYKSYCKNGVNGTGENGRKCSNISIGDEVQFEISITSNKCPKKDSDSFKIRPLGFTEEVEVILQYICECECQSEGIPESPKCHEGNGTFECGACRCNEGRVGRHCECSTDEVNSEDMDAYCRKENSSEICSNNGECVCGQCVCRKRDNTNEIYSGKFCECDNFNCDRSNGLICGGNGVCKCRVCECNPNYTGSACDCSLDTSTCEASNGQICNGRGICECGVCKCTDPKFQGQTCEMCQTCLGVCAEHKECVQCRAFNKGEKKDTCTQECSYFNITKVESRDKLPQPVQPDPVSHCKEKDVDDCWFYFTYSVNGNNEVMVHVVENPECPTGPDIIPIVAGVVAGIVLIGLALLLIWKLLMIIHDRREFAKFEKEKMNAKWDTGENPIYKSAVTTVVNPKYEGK

Take `COC(=O)C[C@H](NC(=O)[C@H](C)NC(=O)[C@@H](NC(=O)OCc1ccccc1)C(C)C)C(=O)CF` [ZVAD-fmk] (Cbz-Val-Ala-Asp(OMe)-CH2F): the “elastase-induced increase in F-actin aggregates” value in assay [1] is recorded as “inhibited”. For the same compound, the “elastase-induced caspase 3 and 7 activation” value in assay [2] was “inhibited elastase-induced caspase activation”.
“JB1a monoclonal antibody (JB1A mouse anti-CD29 (Integrin beta-1 subunit) IgG monoclonal antibody, unconjugated, clone JB1a, Millipore, Catalogue number MAB-1965)” displayed an IL-1beta-stimulated IL-8 secretion by primary human chondrocytes, reduction in assay [3] of 50%.
